The structures appear in SMILES notation. Entries after “also recorded” stand apart in the source; their conditions may differ.

One test deals with 20-HETE. In words: Urinary excretion of 20-HETE in rats (fluorescent HPLC assay). In kind it is in vivo, rat. The settings on record: chronic treatment with HET0016 for 7 days, 1 mg/kg ip twice daily. From the text: The rats were divided in four groups. […] This dose was chosen based on our previous results (Kehl F et al., Am J Physiol Heart Circ Physiol 282: H1556-H1565, 2002).
Measurement of urinary excretion of 20-HETE: On the last day of electrical stimulation, rats were placed in a metabolic cage that efficiently separates urine from food. Just before the start of the urine collection, food was withdrawn to avoid contamination of the urine sample, and the 24-h control and treated urine samples were collected into a glass bottle packed with ice. The concentration of 20-HETE in the urine samples was measured using a fluorescent HPLC assay, as previously described (Maier K G et al., Am J Physiol Heart Circ Physiol 279: H863-H871, 2000). […] Excess dye was removed using Sep-Pak Vac extraction (Maier K G et al., Am J Physiol Heart Circ Physiol 279: H863-H871, 2000), and the samples were dried under argon, resuspended in 100 μl of methanol, and analyzed by reverse-phase HPLC (Waters) using a fluorescence detector (model number L-7480; Hitachi, Naperville, Ill.). The amount of 20-HETE in the sample was determined by comparing the area of the 20-HETE peak with that of the internal standard.

The test system of the next test is p42/p44 MAPK. In words: Western blot of phospho-p42/p44 MAPK in 9L cells. In kind it is cell-based, rat. Particulars: 10 μM HET0016; 4 hr, 24 hr. As to the method:
They were then pelleted by centrifugation at 1,000 g for 5 min at 4° C. The cells were lysed by adding RIPA buffer [20 mM HEPES (pH 7.4), 100 mM NaCl, 1% Nonidet P-40, 0.1% SDS, 1% deoxycholic acid, 10% glycerol, 1 mM EDTA, 1 mM NaVO3, 50 mM NaF, and protease inhibitors Set 1 (Calbiochem, La Jolla, Calif.)]. The plates were then scraped and the cells were collected in a 1.5-ml centrifuge tube, followed by incubation on ice for 30 min. The cell homogenates were centrifuged for 10 min at 14,000 g and 4° C.; the pellets were discarded and the protein concentrations in the supernatant determined by bicinchoninic acid (BCA) protein assay.
Typically, 20 μg of protein obtained from the cell homogenates was separated on a 14% Tris-glycine gel (Invitrogen) and transferred to a PVDF membrane (Biotrace, Bothell, Wash.). The membranes were blocked for 1 hr at room temperature with blocking buffer [0.2% I-Block reagent (Tropix, Bedford, Mass.), 0.1% Tween-20 in 1×PBS] and then incubated with the primary antibodies in blocking buffer overnight at 4° C. Phospho-p42/p44 MAPK (T202/Y204)(20G11), and phospho-SAPK/JNK (T183/Y185) (98F2) monoclonal antibodies were purchased from Upstate (Waltham, Mass.). […] Both phospho-p44/p42MAPK and phospho-SAPK/JNK were detected using 1:1000 antibody dilutions. […]
A general note: In western blotting, separated proteins are transferred to a membrane and probed.

The subject of a further test is 9L rat gliosarcoma cells. In words: [3H]thymidine incorporation in 9L cells. The settings on record: 10 μM HET0016. Format: cell-based. The procedure: [^3H]Thymidine Incorporation Studies: Thymidine incorporation studies were performed with cells grown in 35-mm culture dishes. […] Palmitic acid and EtOH served as nonspecific fatty acid and vehicle controls, respectively. At the end of the pulse, the medium was aspirated and the cells rinsed twice with cold 1× phosphate buffered saline (PBS). The rinsed cultures were fixed by exposure to cold 5% trichloracetic acid overnight at 4° C., after which fixed cells were extracted as described previously (Scholler et al., Mol. Pharmacol. 45: 944-954, 1994). A second set of non-fixed dishes was treated with 0.05% trypsin/EDTA to estimate cell numbers. [^3H]thymidine was detected by scintillation counting and expressed as dpm/10^3 cells.
For orientation: Dividing cells build labelled thymidine or BrdU into new DNA.

For a further test, the system named is U251 human glioma cells. In words: Flow cytometry of cell cycle distribution in U251 cells. Format: cell-based. Particulars: 10 μM HET0016, 24 and 48 hr. The procedure: Flow Cytometry: Cells were cultured in 100-mm dishes at densities that ensured exponential growth at the time of harvest. The harvesting and processing protocols used to detect DNA by flow cytometry with propidium iodide (PI) have been described previously (Reiners et al., Carcinogenesis 20: 1561-1566, 1999). Cells were analyzed with a Becton Dickinson FACScan in the Wayne State University Flow Cytometry Core Facility, Detroit, Mich. Percentages of cells in the G0/G1, S, and G2/M stages of the cell cycle were determined with a DNA histogram-fitting program (MODFIT; Verity Software, Topsham, Me.). A minimum of 10^4 events/sample were collected.

On to `CCCCc1ccc(N=CNO)c(C)c1` [HET0016, N-hydroxy-N′-(4-butyl-2 methylphenyl) formamidine], for which the “reduction of 24-h urinary 20-HETE excretion compared with the control group (lecithin)” value in the test on 20-HETE came to 36%. The “phosphorylation of p42/p44 MAPK” value with p42/p44 MAPK was “decreases the phosphorylation; also recorded: significantly reduced the phosphorylation; also recorded: even greater after 24 hr”. Further, the “reduction of thymidine incorporation in 9L cultures” value with 9L rat gliosarcoma cells amounted to 60%. Also, the “effect on cell cycle distribution” value in the test on U251 human glioma cells is listed as “arresting the cell cycle at G0/G1; also recorded: Cells containing G0/G1 DNA accumulated”.

These data come from patent US20050124618A1, “Methods of modulating angiogenesis and cancer cell proliferation” (priority 2003, published 2005).
